Tests used:
[1] = 28-day repeated oral dosing safety in German shepherd dogs; type: in vivo, dog; conditions: dogs
Experimental: (§1) Dog serum concentrations of Compound-1, Compound-1F and Compound-4 were determined with serum isolated from the blood of German shepherd dogs (age: 8-9 months) taken at different time points (2 h, 4 h, 6 h, 8, 10 h, 24 h) after oral drug intake. The steady-state serum concentrations of Compound-1, Compound-1F and Compound-4 were determined in mice with blood isolated at the end of the study by cardiac puncture. Serum proteins were removed by acetonitrile precipitation, and compounds were extracted by chloroform before separation on an HPLC-C18 column (Poroshell 120 EC-C18, Agilent) with an HPLC system (Agilent 1100 Series) and detection at OD 280 nm, for Compound-1 and Compound-1F. Detection of Compound-4 was performed at OD 310 nm. The same extraction method was also used to determine Compound-1F in the serum of healthy human research participants. Dog hematology and biochemical parameters were determined by the Center of Applied Analytical and Veterinary Studies, Cairo, Egypt. ECG and blood pressure were measured by Dr. Mohamed Elsaed, Electrocardiography Unit, Faculty of Veterinary Medicine, Cairo University. The study was approved by the ethical committee of the Center of Applied and Veterinary Studies, Cairo, Egypt. Clinical laboratory parameters of human research participants were determined by the Rabaa El Adaweya Medical Central Hospital, Cairo, Egypt.

[2] = Serum concentration by HPLC in dogs after oral dosing; type: in vivo, dog; conditions: dogs
Experimental: as §1

[3] = repeated oral dosing 28 days, 200 mg daily

With c1cc(-c2ccc3c(c2)OCO3)ncn1 [Compound-4, 4-(1,3-benzodioxol-5-yl)pyrimidine] the “blood pressure and heart rate before vs after drug intake” value ([1]; 28 days) was “not different”, the clinical laboratory parameters ([1]; 28 days at 120, 200 and 300 mg per day) was “within the normal range” and the tolerability ([1]; therapeutic dose range) was “excellent tolerability”. For the same compound, the “dose dependence of peak serum levels at 2 h after drug intake” value ([2]; doses of 120 mg, 200 mg and 300 mg, 28 days) was “dose-dependent increase”, the oral bioavailability ([2]; oral treatment) was “good oral bioavailability” and the “serum concentration at t=8 h after intake” value [2, 3] was “undetectable”. For the same compound, the “time to peak serum level after drug intake” value [2, 3] was 2 h and the peak serum concentration ([2]; repeated oral dosing 28 days, daily dose of 200 mg) was 0.56 ± 0.10 µg/mL.

Source: patent US20210015793A1, “COMPOUNDS FOR TREATING CNS- AND NEURODEGENERATIVE DISEASES” (ETH ZURICH, priority 2018, published 2021)
